# Like-named read-outs stand apart in the source and are kept apart here.
# What was measured:
# [1] = test system: CXCL1(1-72) binding to chondroitin sulfate (CS); assay: Competition with CXCL1 for binding to immobilized CS; parameters: species or system murine; conditions: n ≥ 3, Figure 6B; for maximum inhibition of CXCL1 binding to CS: maximum achieved
# Experimental: (§1) The ability of the COOH-terminal peptides of CXCL9 and CXCL4 to compete for GAG binding with the inflammatory chemokines CXCL8 and CXCL1 was evaluated on heparin-binding plates [BD Biosciences or produced by Jason Whittle (School of Engineering/Future Industries Institute, University of South Australia, Australia)] ([42], [47]). In brief, GAGs (heparin, HS, and CS; Iduron; 25 µg/ml) were coated overnight at room temperature. Dilutions of COOH-terminal CXCL9 or CXCL4 peptide combined with recombinant human CXCL8(1-77) or recombinant murine CXCL1(1-72) (Peprotech, Rocky Hill, NJ, USA) were added in duplicate and incubated for 2 h at 37°C. Subsequently, bound CXCL8 or CXCL1 was detected with biotinylated polyclonal rabbit anti-human CXCL8 or biotinylated polyclonal goat anti-mouse CXCL1 (Peprotech) and horse radish peroxidase-labeled streptavidin. Finally, the peroxidase activity was quantified at 450 nm.
# (§2) Competition between CXCL1 and COOH-terminal CXCL9 peptides for binding to immobilized heparan sulfate (HS) (A) and chondroitin sulfate (CS) (B) was performed. […] Bound CXCL1 was detected with biotinylated polyclonal goat anti-mouse CXCL1 antibodies. The mean (± SEM) percentage inhibition of CXCL1 binding to GAGs is indicated on the y-axis (n ≥ 3). Statistical comparison of the different competitors with CXCL9(74–103) was performed using the Mann–Whitney U-test.
# [2] = Isothermal fluorescence titration (IFT), LMWH; type: binding; conditions: for affinity for LMWH: IFT, both COOH-terminal peptides compared
# Experimental: (§3) To study the interaction between CXCL9(74-93) and GAGs, titration experiments were performed as described by Gerlza et al. ([46]) using TAMRA-labeled synthetic CXCL9(74-93), TAMRA-labeled synthetic CXCL9(74-103), HS (Iduron BN1, Manchester, UK), low molecular weight heparin (LMWH; Iduron BN5), and chondroitin sulfate (CS; Carbosynth, Compton, UK).
# [3] = Isothermal fluorescence titration (IFT), CS; type: binding; conditions: for Kd: isothermal fluorescence titration, TAMRA-labeled peptide, read-out: affinity (KD) for CS
# Experimental: as §3
# [4] = test system: CXCL8(1-77) binding to cellular GAGs on CHO cells; assay: Competition with biotinylated CXCL8 for binding to CHO cells, flow cytometry; type: cell-based, Chinese hamster; conditions: mean, n ≥ 4, Figure 3C (300 nM CXCL8)
# Experimental: Binding of biotinylated CXCL9(74-103) and CXCL9(74-93) to CHO cells was assessed by flow cytometry as recently described ([42]). Briefly, cells were detached with phosphate-buffered saline (PBS) with 0.02% ethylenediaminetetraacetic acid (EDTA) and incubated with NH2-terminally biotinylated peptides. Subsequently, cells were incubated with streptavidin-allophycocyanin (BD Biosciences, San Jose, CA, USA) and analyzed by flow cytometry (FACSCalibur, BD Biosciences). To confirm inhibition of sulfation of cellular GAGs, part of the cells were stained with a mouse monoclonal anti-human HS antibody (Immunosource, Schilde, Belgium) and a secondary phycoerythrin-labeled goat anti-mouse antibody (BD Biosciences). Finally, cells were analyzed by flow cytometry. Analogously, binding of 100 nM biotinylated CXCL8 in the presence or absence of CXCL9(74-103) or CXCL9(74-93) was compared on CHO cells.
# Figure 3 CXCL9(74-93) competes with CXCL8 for binding to heparin, heparan sulfate (HS), and cellular glycosaminoglycans (GAGs). Competition between CXCL8 and COOH-terminal CXCL9 or CXCL4 peptides for binding to immobilized heparin (A) or HS (B) and to Chinese hamster ovary (CHO) cells (C) was performed. […] Bound CXCL8 was detected with biotinylated anti-human CXCL8 antibodies. (C) Binding of NH2-terminally biotinylated CXCL8(1-77) (300 nM) to CHO cells in the presence or absence of an excess CXCL9 peptide was detected by streptavidin-allophycocyanin and flow cytometry. The mean (± SEM) percentage inhibition of binding of CXCL8(1-77) to heparin, HS or cellular GAGs is indicated on the y-axis (n ≥ 4). Statistical comparison of the different competitors with CXCL9(74–103) was performed using the Mann–Whitney U-test (*p < 0.05).
# [5] = test system: CXCL1(1-72) binding to heparan sulfate (HS); assay: Competition with CXCL1 for binding to immobilized HS; parameters: species or system murine; conditions: n ≥ 3, Figure 6A; for reduction of CXCL1 binding to HS: mean; for maximum inhibition of CXCL1 binding to HS: maximum achieved
# Experimental: as §1, §2
# [6] = Isothermal fluorescence titration (IFT), HS; type: binding; conditions: for affinity for HS: IFT, both COOH-terminal peptides compared
# Experimental: as §3
# [7] = previously reported; read-out: KD for LMWH; cited from earlier work
# Experimental: To obtain more insight in the contribution of the unique COOH-terminal region of CXCL9 and in the specificity of CXCL9-derived peptides for different GAGs, the affinity of CXCL9(74–93) for LMWH, HS, and CS was determined by IFT. […] A biphasic binding isotherm was obtained when titrating CXCL9(74-93) with HS, indicating more than one binding site for the peptide on this GAG. Fitting only the initial high-affinity phase, a KD ...
# [8] = test system: dengue virus; conditions: cited from earlier work
# Excerpt: (§4) In several inflammatory diseases, an enhanced expression of chemokines leads to the pathological and continuous accumulation of activated leukocytes in tissues and consequently tissue damage. Thus, a reduction of chemokine activity at sites of excessive inflammation is needed. Although a lot of efforts were invested in the development of small molecule chemokine receptor antagonists, since the discovery of chemokine receptors as members of the GPCR family about two decades ago, success stories are limited to a few drugs that entered the market ([66]). Recently, inhibition of chemokine–GAG inte ...
# [9] = test system: respiratory syncytial virus; conditions: cited from earlier work
# Excerpt: as §4
# [10] = test system: herpes simplex virus-1; conditions: cited from earlier work
# Excerpt: as §4
substance,measurement,setting,value
"74KKKQKNGKKHQKKKVLKVRK93 [CXCL9(74-93), COOH-terminal peptide of CXCL9 lacking the 10 COOH-terminal amino acids of CXCL9(74-103)]",maximum inhibition of CXCL1 binding to CS,[1],52%
same,amount needed for same reduction of CXCL1 binding to CS relative to CXCL9(74-103),[1],three times more
same,affinity for LMWH,[2],high and comparable affinity
same,Kd,"[2]; isothermal fluorescence titration, TAMRA-labeled peptide, read-out: affinity (KD value) for LMWH",63 ± 13 nM
same,Kd,[3],296 ± 19 nM
same,inhibition of binding of biotinylated CXCL8 to cellular GAGs,[4]; 30-fold excess of peptide,31%
same,inhibition of binding of biotinylated CXCL8 to cellular GAGs,[4]; 100-fold excess of peptide,50%
same,reduction of CXCL1 binding to HS,[5]; 10-fold molar excess,39%
same,maximum inhibition of CXCL1 binding to HS,[5],52%
same,competition for CXCL1 binding to HS,[5],less potent competitor than CXCL9(74-103)
same,affinity for HS,[6],high and comparable affinity
same,Kd,"[6]; isothermal fluorescence titration, TAMRA-labeled peptide, biphasic binding isotherm, fit of only the initial high-affinity phase",1 nM
"74KKKQKNGKKHQKKKVLKVRKSQRSRQKKTT103 [CXCL9(74-103), COOH-terminal peptide of CXCL9]",Kd,[7],61 nM
same,maximum inhibition of CXCL1 binding to CS,[1],63%
same,affinity for LMWH,[2],high and comparable affinity
same,relative affinity for CS,[3]; compared to CXCL9(74-93),about fourfold higher affinity for CS
same,Kd,[3],68 ± 4.6 nM
same,inhibition of binding of biotinylated CXCL8 to cellular GAGs,[4]; 30-fold excess of peptide,53%
same,inhibition of viral infection of cells,[8],able to inhibit viral infection of cells
same,inhibition of viral infection of cells,[9],able to inhibit viral infection of cells
same,inhibition of viral infection of cells,[10],able to inhibit viral infection of cells
same,maximum inhibition of CXCL1 binding to HS,[5],72%
same,reduction of CXCL1 binding to HS,[5]; threefold molar excess compared to CXCL1,43%
same,affinity for HS,[6],high and comparable affinity

# Reference: publication PMC5423902, “CXCL9-Derived Peptides Differentially Inhibit Neutrophil Migration In Vivo through Interference with Glycosaminoglycan Interactions” (Frontiers in Immunology, 2017)
